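Five concentrations, 48 hours, 96-well plates. GI50 marks 50% less growth.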 Active and inactive are the calls of the source. Cut-off read from the data, not from the text of the source: active = GI50 up to about 1.1 µM and inactive = higher.
Columns and labels:
Test in all cases: NCI tumour cell line growth inhibition, 48 h
[1] = tested on: 786-0
[2] = tested on: A498
[3] = tested on: A549
[4] = tested on: CAKI-1
[5] = tested on: CCRF-CEM
[6] = tested on: DU-145
[7] = tested on: HOP-92
[8] = tested on: IGROV-1
[9] = tested on: M14
[10] = tested on: MCF7
[11] = tested on: MDA-MB-231
[12] = tested on: MDA-MB-435
[13] = tested on: MDA-N
[14] = tested on: Malme-3M
[15] = tested on: NCI-H23
[16] = tested on: NCI-H460
[17] = tested on: OVCAR-8
[18] = tested on: PC-3
[19] = tested on: SK-OV-3
[20] = tested on: SNB-75

| SMILES | GI50 [1] | GI50 [2] | GI50 [3] | GI50 [4] | GI50 [5] | GI50 [6] | GI50 [7] | GI50 [8] | GI50 [9] | GI50 [10] | GI50 [11] | GI50 [12] | GI50 [13] | GI50 [14] | GI50 [15] | GI50 [16] | GI50 [17] | GI50 [18] | GI50 [19] | GI50 [20] |
| --- | --- | --- | --- | --- | --- | --- | --- | --- | --- | --- | --- | --- | --- | --- | --- | --- | --- | --- | --- | --- |
| CCCCCC/C=C\CCCCCCCCCc1cccc(O)c1C(=O)O [GINKGOLIC ACID 17:1] | > 100 µM (inactive) | > 100 µM (inactive) | > 100 µM (inactive) | > 100 µM (inactive) | 99.1 µM (inactive) | > 100 µM (inactive) | > 100 µM (inactive) | > 100 µM (inactive) | > 100 µM (inactive) | > 100 µM (inactive) | > 100 µM (inactive) | > 100 µM (inactive) | > 100 µM (inactive) | > 100 µM (inactive) | > 100 µM (inactive) | > 100 µM (inactive) | > 100 µM (inactive) | 51.9 µM (inactive) | > 100 µM (inactive) | > 100 µM (inactive) |
| O=[N+]([O-])C(=C(Cl)Cl)C(Cl)=C(Cl)Cl | 0.0895 µM (active) | 3.63 µM (inactive) | 6.44 µM (inactive) | 0.15 µM (active) | < 0.01 µM (active) | 8.85 µM (inactive) | 0.279 µM (active) | 0.422 µM (active) | 0.0202 µM (active) | 0.114 µM (active) | 0.505 µM (active) | 0.314 µM (active) | 0.206 µM (active) | 0.0454 µM (active) | 0.265 µM (active) | 1.96 µM (inactive) | 0.619 µM (active) | 0.778 µM (active) | 3.25 µM (inactive) | 1.39 µM (inactive) |
